ChEMBL document CHEMBL4673391, “Multiresidue Tetrapeptide Substitutions Yield a 140-fold Selective Melanocortin-3 over Melanocortin-4 Receptor Agonist” (ACS Med Chem Lett, 2021)

Columns and labels:
[1] = biological target: Melanocyte-stimulating hormone receptor (Mus musculus, UniProt Q01727); assay: Agonist activity at mouse melanocortin receptor 1 expressed in HEK293 cells assessed as stimulation of cAMP accumulation incubated for 2 hrs by cAMP Alpha-screen assay; format: functional, cell-based
[2] = biological target: Melanocortin receptor 3 (Mus musculus, UniProt P33033); assay: Agonist activity at mouse melanocortin receptor 3 expressed in HEK293 cells assessed as stimulation of cAMP accumulation incubated for 2 hrs by cAMP Alpha-screen assay; format: functional, cell-based
[3] = biological target: Melanocortin receptor 4 (Mus musculus) (UniProt P56450); assay: Agonist activity at mouse melanocortin receptor 4 expressed in HEK293 cells assessed as stimulation of cAMP accumulation at 100 uM incubated for 2 hrs by cAMP Alpha-screen assay relative to control; format: functional, cell-based
[4] = biological target: T1, Melanocortin receptor 4 (Mus musculus, UniProt P56450); assay: Antagonist activity at mouse melanocortin receptor 4 expressed in HEK293 cells assessed as inhibition of NDP-MSH-induced cAMP accumulation incubated for 2 hrs by cAMP Alpha-screen assay based Schild analysis; format: functional, cell-based; conditions: for Kb: read-out: pA2 (converted)
[5] = biological target: Melanocortin receptor 5 (Mus musculus, UniProt P41149); assay: Agonist activity at mouse melanocortin receptor 5 expressed in HEK293 cells assessed as stimulation of cAMP accumulation incubated for 2 hrs by cAMP Alpha-screen assay; format: functional, cell-based
[6] = species on record: Mus musculus; assay: Selectivity index, ratio of Ki for mouse melanocortin receptor 4 expressed in HEK293 cells to EC50 for mouse melanocortin receptor 3 expressed in HEK293 cells assessed as stimulation of cAMP accumulation incubated for 2 hrs by cAMP Alpha-screen assay; format: cell-based
[7] = biological target: Melanocyte-stimulating hormone receptor (Mus musculus) (UniProt Q01727); assay: Partial agonist activity at mouse melanocortin receptor 1 expressed in HEK293 cells assessed as stimulation of cAMP accumulation incubated for 2 hrs by cAMP Alpha-screen assay relative to NDP-MSH; format: functional, cell-based; conditions: filed as partial agonist
[8] = biological target: T1, Melanocortin receptor 4; assay: Agonist activity at mouse melanocortin receptor 4 expressed in HEK293 cells assessed as stimulation of cAMP accumulation incubated for 2 hrs by cAMP Alpha-screen assay; format: functional, cell-based
[9] = species on record: Mus musculus; assay: Selectivity index, ratio of EC50 for mouse melanocortin receptor 4 expressed in HEK293 cells to EC50 for mouse melanocortin receptor 3 expressed in HEK293 cells assessed as stimulation of cAMP accumulation incubated for 2 hrs by cAMP Alpha-screen assay; format: cell-based

Chain of Melanocortin receptor 4 (Mus musculus) (P56450 whole entry): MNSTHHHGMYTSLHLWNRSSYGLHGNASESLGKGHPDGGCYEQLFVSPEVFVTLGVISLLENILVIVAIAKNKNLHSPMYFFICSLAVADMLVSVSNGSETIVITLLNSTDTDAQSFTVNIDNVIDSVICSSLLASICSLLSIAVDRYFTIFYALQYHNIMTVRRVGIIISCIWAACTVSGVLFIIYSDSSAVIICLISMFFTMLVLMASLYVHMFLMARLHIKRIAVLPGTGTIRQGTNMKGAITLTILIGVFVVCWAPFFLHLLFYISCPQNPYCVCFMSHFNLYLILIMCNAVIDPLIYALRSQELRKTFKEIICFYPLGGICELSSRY
T1 sequence (P56450 whole entry): as above
Chain of Melanocyte-stimulating hormone receptor (Q01727 whole entry): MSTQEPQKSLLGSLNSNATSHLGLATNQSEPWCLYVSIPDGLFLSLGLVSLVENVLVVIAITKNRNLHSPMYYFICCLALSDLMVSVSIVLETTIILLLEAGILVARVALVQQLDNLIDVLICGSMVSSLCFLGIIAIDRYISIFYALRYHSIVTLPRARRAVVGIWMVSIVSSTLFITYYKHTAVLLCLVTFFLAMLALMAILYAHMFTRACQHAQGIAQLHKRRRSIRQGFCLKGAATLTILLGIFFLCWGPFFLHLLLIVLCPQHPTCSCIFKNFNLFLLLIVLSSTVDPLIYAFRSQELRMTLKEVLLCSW
Chain of Melanocortin receptor 3 (P33033 whole entry): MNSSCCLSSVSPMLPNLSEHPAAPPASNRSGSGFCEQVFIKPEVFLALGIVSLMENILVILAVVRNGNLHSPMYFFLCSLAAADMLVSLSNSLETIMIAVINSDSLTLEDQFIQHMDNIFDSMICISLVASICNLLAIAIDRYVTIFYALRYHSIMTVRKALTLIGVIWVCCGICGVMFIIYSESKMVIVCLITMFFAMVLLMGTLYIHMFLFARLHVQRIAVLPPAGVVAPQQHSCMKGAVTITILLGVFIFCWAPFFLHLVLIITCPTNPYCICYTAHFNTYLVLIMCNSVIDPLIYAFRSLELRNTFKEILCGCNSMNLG
Chain of Melanocortin receptor 5 (P41149 whole entry): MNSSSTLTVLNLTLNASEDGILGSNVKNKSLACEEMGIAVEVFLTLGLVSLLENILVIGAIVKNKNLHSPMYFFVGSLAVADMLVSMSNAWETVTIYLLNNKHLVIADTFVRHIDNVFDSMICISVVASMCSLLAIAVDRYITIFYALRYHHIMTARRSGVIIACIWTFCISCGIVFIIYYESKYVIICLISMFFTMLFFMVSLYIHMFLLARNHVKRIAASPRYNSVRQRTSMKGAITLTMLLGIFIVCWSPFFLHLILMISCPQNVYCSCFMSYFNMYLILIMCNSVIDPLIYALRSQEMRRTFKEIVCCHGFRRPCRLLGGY
Chain of Melanocyte-stimulating hormone receptor (Mus musculus) (Q01727 whole entry, looked up): as the sequence (Q01727 whole entry) above

Work on `CC(=O)N[C@@H](Cc1c[nH]cn1)C(=O)N[C@@H](CCCNC(=N)N)C(=O)N[C@H](Cc1ccc(-c2ccccc2)cc1)C(=O)N1Cc2ccccc2C[C@H]1C(N)=O` yielded an EC50 [1] of 0.5 nM, an EC50 [2] of 22 nM and an Activity [3] of 35%. For the same compound, the Ki [4] was 320 nM, the Kb [4] was 316 nM and the EC50 [5] was 9 nM. For the same compound, the Selectivity ratio [6] was 14.
Compound `CC(=O)N[C@@H](Cc1c[nH]cn1)C(=O)N[C@@H](CCCNC(=N)N)C(=O)N[C@H](Cc1ccc(-c2ccccc2)cc1)C(=O)N1Cc2ccccc2C[C@@H]1C(N)=O` has an EC50 [1] of 0.9 nM, an EC50 [2] of 39 nM and an Activity [3] of 35%. It also gave a Ki [4] of 320 nM, a Kb [4] of 316 nM and an EC50 [5] of 26 nM. The Selectivity ratio [6] was 8.
`CC(=O)N[C@@H](Cc1c[nH]cn1)C(=O)N[C@@H](CCC(N)=O)C(=O)N[C@H](Cc1ccc(-c2ccccc2)cc1)C(=O)N1Cc2ccccc2C[C@@H]1C(N)=O` showed an EC50 [1] of 123 nM, an EC50 [2] of 110 nM and an Activity ([3]; filed as agonist) of 50%. For the same compound, the Ki [4] was 3980 nM, the Kb [4] was 3980 nM and the EC50 [5] was 39 nM. It also gave a Selectivity ratio [6] of 36.
`CC(=O)N[C@H](C(=O)N[C@@H](CCC(N)=O)C(=O)N[C@H](Cc1ccc(-c2ccccc2)cc1)C(=O)N1Cc2ccccc2C[C@H]1C(N)=O)C(C)C` showed an Activity [7] of 85%, an EC50 [1] of 80 nM and an EC50 [2] of 110 nM. The Activity [3] was 20%, the Ki [4] was greater than 10000 nM and the Kb [4] was greater than 10000 nM. It also gave an EC50 [5] of 31 nM and a Selectivity ratio [6] greater than 90.
`CC(=O)N[C@H](C(=O)N[C@@H](CCC(N)=O)C(=O)N[C@H](Cc1ccc(-c2ccccc2)cc1)C(=O)N1Cc2ccccc2C[C@@H]1C(N)=O)C(C)C` was tested, and the Activity [7] was 75%, the EC50 [1] was 150 nM and the EC50 [2] was 70 nM. It also gave an Activity ([3]; filed as agonist) of 40%, a Ki [4] greater than 10000 nM and a Kb [4] greater than 10000 nM. It also gave an EC50 [5] of 36 nM and a Selectivity ratio [6] greater than 140.
`CC(=O)N[C@@H](CCCNC(=N)N)C(=O)N[C@@H](CCCNC(=N)N)C(=O)N[C@H](Cc1ccc(-c2ccccc2)cc1)C(=O)N1Cc2ccccc2C[C@@H]1C(N)=O` showed an EC50 [1] of 0.6 nM, an EC50 [2] of 14 nM and an Activity ([3]; filed as agonist) of 40%. It also gave a Ki [4] of 160 nM, a Kb [4] of 158 nM and an EC50 [5] of 5.7 nM. The Selectivity ratio [6] was 11.
Work on `CC(=O)N[C@@H](CCCNC(=N)N)C(=O)N[C@@H](CCCNC(=N)N)C(=O)N[C@H](Cc1ccc(-c2ccccc2)cc1)C(=O)N1Cc2ccccc2C[C@H]1C(N)=O` yielded an EC50 [1] of 0.23 nM, an EC50 [2] of 11 nM and an Activity [3] of 35%. The Ki [4] was 125 nM, the Kb [4] was 126 nM and the EC50 [5] was 3.5 nM. For the same compound, the Selectivity ratio [6] was 11.
`CC(=O)N[C@H](C(=O)N[C@@H](CCCNC(=N)N)C(=O)N[C@H](Cc1ccc(-c2ccccc2)cc1)C(=O)N1Cc2ccccc2C[C@H]1C(N)=O)C(C)C` showed an EC50 [1] of 1.1 nM, an EC50 [2] of 40 nM and an Activity [3] of 10%. The Ki [4] was 400 nM, the Kb [4] was 398 nM and the EC50 [5] was 18 nM. The Selectivity ratio [6] was 10.
With `CC(=O)N[C@@H](Cc1c[nH]cn1)C(=O)N[C@@H](CCC(N)=O)C(=O)N[C@H](Cc1ccc(-c2ccccc2)cc1)C(=O)N1Cc2ccccc2C[C@H]1C(N)=O` the EC50 [1] was 160 nM, the EC50 [2] was 150 nM and the Activity [3] was 20%. It also gave a Ki [4] of 10000 nM, a Kb [4] of 10000 nM and an EC50 [5] of 31 nM. It also gave a Selectivity ratio [6] of 65.
`CC(=O)N[C@@H](CCCNC(=N)N)C(=O)N[C@@H](CCC(N)=O)C(=O)N[C@H](Cc1ccc(-c2ccccc2)cc1)C(=O)N1Cc2ccccc2C[C@@H]1C(N)=O` gave an EC50 [8] of 400 nM, an EC50 [1] of 11 nM and an EC50 [2] of 14 nM. The EC50 [5] was 5.6 nM and the Ratio EC50 [9] was 28.
With `CC(=O)N[C@H](C(=O)N[C@@H](CCCNC(=N)N)C(=O)N[C@H](Cc1ccc(-c2ccccc2)cc1)C(=O)N1Cc2ccccc2C[C@@H]1C(N)=O)C(C)C` the EC50 [1] was 1.7 nM, the EC50 [2] was 36 nM and the Activity [3] was 35%. The Ki [4] was 250 nM, the Kb [4] was 251 nM and the EC50 [5] was 25 nM. For the same compound, the Selectivity ratio [6] was 7.
Compound `CC(=O)N[C@@H](CCCNC(=N)N)C(=O)N[C@@H](CCC(N)=O)C(=O)N[C@H](Cc1ccc(-c2ccccc2)cc1)C(=O)N1Cc2ccccc2C[C@H]1C(N)=O` has an EC50 [1] of 60 nM, an EC50 [2] of 66 nM and an Activity ([3]; filed as agonist) of 40%. The Ki [4] was 2000 nM, the Kb [4] was 2000 nM and the EC50 [5] was 16.4 nM. It also gave a Selectivity ratio [6] of 30.
